In experiment [1] the target is T1, Human CB1 receptor (Homo sapiens, UniProt P21554).
T1 construct: purchased Receptor Biology
Briefly: hCB1 GTPγS binding. The conditions noted are these: for Emax: maximal stimulation defined by 10 μM Win 55,212-2. The format is biochemical. The protocol: Human CB1 receptor from Receptor Biology (hCB1) or human CB2 receptor membranes (BioSignal) are thawed at 37° C., passed 3 times through a 25-gauge blunt-end needle and diluted in the GTPγS binding buffer (50 mM Hepes, 20 mM NaOH, 100 mM NaCl, 1 mM EDTA, 5 mM MgCl2, pH 7.4, 0.1% BSA). The EC50 and Emax of the compounds of the invention are evaluated from 10-point dose-response curves done in 300 μl with the appropriate amount of membrane protein and 100000-130000 dpm of GTPg^35S per well (0.11-0.14 nM). The basal and maximal stimulated binding is determined in absence and presence of 1 μM (hCB2) or 10 μM (hCB1) Win 55,212-2 respectively. The membranes are pre-incubated for 5 minutes with 56.25 μM (hCB2) or 112.5 μM (hCB1) GDP prior to distribution in plates (15 μM (hCB2) or 30 μM (hCB1) GDP final). The plates are vortexed and incubated for 60 minutes at room temperature, filtered on Unifilters GF/B (presoaked in water) with the Tomtec or Packard harvester using 3 ml of wash buffer (50 mM Tris, 5 mM MgCl2, 50 mM NaCl, pH 7.0). The filters are dried for 1 hour at 55° C. The radioactivity (cpm) is counted in a TopCount (Packard) is after adding 65 μl/well of MS-20 scintillation liquid. Antagonist reversal studies are done in the same way except that (a) an agonist dose-response curve is done in the presence of a constant concentration of antagonist, or (b) an antagonist dose-response curve is done in the presence of a constant concentration of agonist.
For orientation: GTPγS resists hydrolysis and so accumulates on activated G proteins.

Experiment [2] has as its target T1, Human CB1 receptor. Briefly: hCB1 receptor binding (3H-CP55,940 displacement). The protocol:
Human CB1 receptor from Receptor Biology (hCB1) or human CB2 receptor from BioSignal (hCB2) membranes are thawed at 37° C., passed 3 times through a 25-gauge blunt-end needle, diluted in the cannabinoid binding buffer (50 mM Tris, 2.5 mM EDTA, 5 mM MgCl2, and 0.5 mg/mL BSA fatty acid free, pH 7.4) and aliquots containing the appropriate amount of protein are distributed in 96-well plates. The IC50 of the compounds of the invention at hCB1 and hCB2 are evaluated from 10-point dose-response curves done with ^3H-CP55,940 at 20000 to 25000 dpm per well (0.17-0.21 nM) in a final volume of 300 μl. The total and non-specific binding are determined in the absence and presence of 0.2 μM of HU210 respectively. The plates are vortexed and incubated for 60 minutes at room temperature, filtered through Unifilters GF/B (presoaked in 0.1% polyethyleneimine) with the Tomtec or Packard harvester using 3 mL of wash buffer (50 mM Tris, 5 mM MgCl2, 0.5 mg BSA pH 7.0). The filters are dried for 1 hour at 55° C. The radioactivity (cpm) is counted in a TopCount (Packard) after adding 65 μl/well of MS-20 scintillation liquid.
Based on the above assays, the dissociation constant (Ki) for a particular compound of the invention towards a particular receptor is determined using the following equation: […]
Wherein IC50 is the concentration of the compound of the invention at which 50% displacement has been observed;
[rad] is a standard or reference radioactive ligand concentration at that moment; and
Kd is the dissociation constant of the radioactive ligand towards the particular receptor.

[3] abbreviates: hCB1 membranes, GTPγ35S, read-out: EC50 (hCB1).
Setting [4] is: hCB1 membranes, 3H-CP55,940, Ki=IC50/(1+[rad]/Kd), read-out: Ki (hCB1).

Where two headings read alike, the source gives them in different places.

T1 sequence (P21554 whole entry): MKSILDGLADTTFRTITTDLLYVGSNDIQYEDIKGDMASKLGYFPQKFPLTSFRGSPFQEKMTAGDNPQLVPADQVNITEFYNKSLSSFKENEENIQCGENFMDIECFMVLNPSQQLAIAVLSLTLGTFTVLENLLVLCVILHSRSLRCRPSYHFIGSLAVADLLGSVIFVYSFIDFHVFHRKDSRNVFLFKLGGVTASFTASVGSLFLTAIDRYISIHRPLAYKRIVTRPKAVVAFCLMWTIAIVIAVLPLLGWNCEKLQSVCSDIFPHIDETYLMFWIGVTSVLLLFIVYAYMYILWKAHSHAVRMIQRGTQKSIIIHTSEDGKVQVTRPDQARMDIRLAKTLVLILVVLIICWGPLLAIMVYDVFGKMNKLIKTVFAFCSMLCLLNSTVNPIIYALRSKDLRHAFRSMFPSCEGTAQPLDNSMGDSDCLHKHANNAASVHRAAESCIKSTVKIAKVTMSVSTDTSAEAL

With `Cc1ccc(C(=O)Nc2ccc[n+]([O-])c2C(=O)NCC2CCC2)c2ccccc12` [Example 2, N-(Cyclobutylmethyl)-3-[[(4-methyl-1-naphthalenyl)carbonyl]amino]-1-oxide-2-pyridinecarboxamide], the EC50 in experiment [1] (setting [3]) stood at 167 nM. Further, in experiment [1] (hCB1 membranes), the Emax came to 106%. Moreover, the Ki in experiment [2] (setting [4]) is 18 nM.
Consider `O=C(Nc1ccc[n+]([O-])c1C(=O)NCC1CCCCC1)c1cccc2ccccc12` [Example 7, N-(Cyclohexylmethyl)-3-[(1-naphthalenylcarbonyl)amino]-1-oxide-2-pyridinecarboxamide], for which a half-maximal response in experiment [1] (EC50) required 506 nM. This compound gave an Emax in experiment [1] (hCB1 membranes) of 128%. The same compound displayed a Ki in experiment [2] of 47 nM.
As to `Cc1ccc(C(=O)Nc2ccc[n+]([O-])c2C(=O)NCC2CCCCC2)c2ccccc12` [Example 8, N-(Cyclohexylmethyl)-3-[(4-methyl-1-naphthalenylcarbonyl)amino]-1-oxide-2-pyridinecarboxamide], in experiment [1] (setting [3]), the EC50 came out at 191 nM. Moreover, the Emax in experiment [1] (hCB1 membranes) amounted to 122%. The inhibition constant Ki in experiment [2] (setting [4]) is 42 nM.

As a reminder, the EC50 is the concentration that produces a half-maximal response. One may read the Emax as the size of the effect at its maximum, as opposed to the concentration needed. As usually defined, the Ki is a dissociation constant, usually derived from enzyme kinetics or from competition with a known ligand.

Source of the values: patent US20070219254A1, “Therapeutic Compounds: Pyridine N-Oxide Scaffold” (priority 2004, published 2007).
